{"source": "patent US20030104507A1", "about": "“Method for detection of ATP” (priority 2001, published 2003)", "key": {"[1]": {"target": "T1, LucPpy (Photinus pyralis, UniProt P08659)", "T1 construct": "purchased Promega E170A", "test": "Stability of reagent composition with LucPpy and detergent (RT, pH 7.0)", "type": "biochemical", "conditions": "for Average Relative Light Units / Percent of Luminescence Remaining: LucPpy", "summary_of_the_method": "(§1)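 Reagent with 50 μg/ml luciferase, luciferin, MgSO4, buffer and detergent at varying concentrations held at about 23° C; enzyme added just before first read. At timepoints, aliquots mixed 1:1 with media containing ATP and luminescence read immediately (0.5 s/well, triplicate); reaction half-lives and percent of original luminescence derived.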"}, "[2]": {"target": "native firefly luciferase (Photinus pyralis, UniProt P08659)", "sequence (P08659 whole entry)": "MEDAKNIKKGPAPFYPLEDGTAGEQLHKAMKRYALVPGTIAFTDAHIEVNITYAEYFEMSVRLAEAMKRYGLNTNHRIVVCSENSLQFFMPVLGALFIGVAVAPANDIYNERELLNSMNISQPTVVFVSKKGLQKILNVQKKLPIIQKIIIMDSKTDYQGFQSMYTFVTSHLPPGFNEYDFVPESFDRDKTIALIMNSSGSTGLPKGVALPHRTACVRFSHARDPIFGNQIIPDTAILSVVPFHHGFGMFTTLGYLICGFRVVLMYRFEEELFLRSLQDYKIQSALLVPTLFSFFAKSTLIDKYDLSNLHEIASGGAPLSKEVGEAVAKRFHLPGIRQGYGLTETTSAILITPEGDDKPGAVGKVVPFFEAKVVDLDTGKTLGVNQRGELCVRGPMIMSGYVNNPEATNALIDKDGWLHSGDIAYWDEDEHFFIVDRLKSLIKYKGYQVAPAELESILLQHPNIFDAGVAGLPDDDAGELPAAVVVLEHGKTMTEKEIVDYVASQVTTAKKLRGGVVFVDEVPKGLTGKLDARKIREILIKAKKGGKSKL", "conditions": "cited from earlier work"}, "[3]": {"test_system": "LucPpe2m146", "test": "Stability of reagent composition with LucPpe2m146 and detergent (RT, pH 7.0)", "type": "biochemical, Photuris pennsylvanica", "summary_of_the_method": "as §1"}}}
{"smiles": "CCCCCCCCCCCC[N+](C)(C)C.[Br-]", "note": "[DTAB, dodecyltrimethylammonium bromide]", "values": [{"measurement": "Half-life of Luminescence Activity", "setting": "[1]; Common firefly luciferase (P. pyralis), conc. 0.500", "result": "no activity"}, {"measurement": "Average Relative Light Units", "setting": "[1]; 0.02%, 0.75 min (head r32)", "result": 4513.320, "unit": "rlu"}, {"measurement": "Percent of Luminescence Remaining", "setting": "[1]; 0.02%, 0.75 min (times of Table I r32)", "result": 100.00, "unit": "%"}, {"measurement": "Average Relative Light Units", "setting": "[1]; 0.02%, 38 min (head r32)", "result": 3761.940, "unit": "rlu"}, {"measurement": "Percent of Luminescence Remaining", "setting": "[1]; 0.02%, 38 min (times of Table I r32)", "result": 99.53, "unit": "%"}, {"measurement": "Average Relative Light Units", "setting": "[1]; 0.02%, 70 min (head r32)", "result": 3363.410, "unit": "rlu"}, {"measurement": "Percent of Luminescence Remaining", "setting": "[1]; 0.02%, 70 min (times of Table I r32)", "result": 74.52, "unit": "%"}, {"measurement": "Average Relative Light Units", "setting": "[1]; 0.02%, 94 min (head r32)", "result": 3229.340, "unit": "rlu"}, {"measurement": "Percent of Luminescence Remaining", "setting": "[1]; 0.02%, 94 min (times of Table I r32)", "result": 71.55, "unit": "%"}, {"measurement": "Average Relative Light Units", "setting": "[1]; 0.02%, 122 min (head r32)", "result": 3082.030, "unit": "rlu"}, {"measurement": "Percent of Luminescence Remaining", "setting": "[1]; 0.02%, 122 min (times of Table I r32)", "result": 68.2, "unit": "%"}, {"measurement": "Average Relative Light Units", "setting": "[1]; 0.1%, 0.75 min (head r18)", "result": 0.307, "unit": "rlu"}, {"measurement": "Percent of Luminescence Remaining", "setting": "[1]; 0.1%, 0.75 min (times of Table I r18)", "result": 100.00, "unit": "%"}, {"measurement": "Average Relative Light Units", "setting": "[1]; 0.1%, 10 min (head r18)", "result": 0.009, "unit": "rlu"}, {"measurement": "Percent of Luminescence Remaining", "setting": "[1]; 0.1%, 10 min (times of Table I r18)", "result": 2.93, "unit": "%"}, {"measurement": "Average Relative Light Units", "setting": "[1]; 0.1%, 36 min (head r18)", "result": 0.005, "unit": "rlu"}, {"measurement": "Percent of Luminescence Remaining", "setting": "[1]; 0.1%, 36 min (times of Table I r18)", "result": 1.55, "unit": "%"}, {"measurement": "Average Relative Light Units", "setting": "[1]; 0.5%, 0.75 min (head r5)", "result": 0.018, "unit": "rlu"}, {"measurement": "Percent of Luminescence Remaining", "setting": "[1]; 0.5%, 0.75 min (times of Table I r5)", "result": 100.00, "unit": "%"}, {"measurement": "effect on native firefly luciferase", "setting": "[2]", "result": "inactivated"}, {"measurement": "Average Relative Light Units", "setting": "[3]; LucPpe2m146, 0.02%, 1.0 min (head r67)", "result": 28730.17, "unit": "rlu"}, {"measurement": "Percent of Luminescence Remaining", "setting": "[3]; LucPpe2m146, 0.02%, 1.0 min (times of Table I r67)", "result": 100.00, "unit": "%"}, {"measurement": "Average Relative Light Units", "setting": "[3]; LucPpe2m146, 0.02%, 34 min (head r67)", "result": 28596.30, "unit": "rlu"}, {"measurement": "Percent of Luminescence Remaining", "setting": "[3]; LucPpe2m146, 0.02%, 34 min (times of Table I r67)", "result": 99.53, "unit": "%"}, {"measurement": "Average Relative Light Units", "setting": "[3]; LucPpe2m146, 0.02%, 65 min (head r67)", "result": 28651.97, "unit": "rlu"}, {"measurement": "Percent of Luminescence Remaining", "setting": "[3]; LucPpe2m146, 0.02%, 65 min (times of Table I r67)", "result": 99.73, "unit": "%"}, {"measurement": "Average Relative Light Units", "setting": "[3]; LucPpe2m146, 0.02%, 115 min (head r67)", "result": 26062.30, "unit": "rlu"}, {"measurement": "Percent of Luminescence Remaining", "setting": "[3]; LucPpe2m146, 0.02%, 115 min (times of Table I r67)", "result": 90.71, "unit": "%"}, {"measurement": "Average Relative Light Units", "setting": "[3]; LucPpe2m146, 0.02%, 175 min (head r67)", "result": 27941.73, "unit": "rlu"}, {"measurement": "Percent of Luminescence Remaining", "setting": "[3]; LucPpe2m146, 0.02%, 175 min (times of Table I r67)", "result": 97.26, "unit": "%"}, {"measurement": "Average Relative Light Units", "setting": "[3]; LucPpe2m146, 0.02%, 238 min (head r67)", "result": 27677.9, "unit": "rlu"}, {"measurement": "Percent of Luminescence Remaining", "setting": "[3]; LucPpe2m146, 0.02%, 238 min (times of Table I r67)", "result": 96.34, "unit": "%"}, {"measurement": "Average Relative Light Units", "setting": "[3]; LucPpe2m146, 0.02%, 286 min (head r67)", "result": 27808.3, "unit": "rlu"}, {"measurement": "Percent of Luminescence Remaining", "setting": "[3]; LucPpe2m146, 0.02%, 286 min (times of Table I r67)", "result": 96.79, "unit": "%"}, {"measurement": "Average Relative Light Units", "setting": "[3]; LucPpe2m146, 0.1%, 1.0 min (head r54)", "result": 20132.47, "unit": "rlu"}, {"measurement": "Percent of Luminescence Remaining", "setting": "[3]; LucPpe2m146, 0.1%, 1.0 min (times of Table I r54)", "result": 100.00, "unit": "%"}, {"measurement": "Average Relative Light Units", "setting": "[3]; LucPpe2m146, 0.1%, 34 min (head r54)", "result": 20574.63, "unit": "rlu"}, {"measurement": "Percent of Luminescence Remaining", "setting": "[3]; LucPpe2m146, 0.1%, 34 min (times of Table I r54)", "result": 102.20, "unit": "%"}, {"measurement": "Average Relative Light Units", "setting": "[3]; LucPpe2m146, 0.1%, 65 min (head r54)", "result": 20800.80, "unit": "rlu"}, {"measurement": "Percent of Luminescence Remaining", "setting": "[3]; LucPpe2m146, 0.1%, 65 min (times of Table I r54)", "result": 103.32, "unit": "%"}, {"measurement": "Average Relative Light Units", "setting": "[3]; LucPpe2m146, 0.1%, 115 min (head r54)", "result": 19908.30, "unit": "rlu"}, {"measurement": "Percent of Luminescence Remaining", "setting": "[3]; LucPpe2m146, 0.1%, 115 min (times of Table I r54)", "result": 98.89, "unit": "%"}, {"measurement": "Average Relative Light Units", "setting": "[3]; LucPpe2m146, 0.1%, 175 min (head r54)", "result": 20760.93, "unit": "rlu"}, {"measurement": "Percent of Luminescence Remaining", "setting": "[3]; LucPpe2m146, 0.1%, 175 min (times of Table I r54)", "result": 103.12, "unit": "%"}, {"measurement": "Average Relative Light Units", "setting": "[3]; LucPpe2m146, 0.1%, 238 min (head r54)", "result": 19758.4, "unit": "rlu"}, {"measurement": "Percent of Luminescence Remaining", "setting": "[3]; LucPpe2m146, 0.1%, 238 min (times of Table I r54)", "result": 98.14, "unit": "%"}, {"measurement": "Average Relative Light Units", "setting": "[3]; LucPpe2m146, 0.1%, 286 min (head r54)", "result": 19659.10, "unit": "rlu"}, {"measurement": "Percent of Luminescence Remaining", "setting": "[3]; LucPpe2m146, 0.1%, 286 min (times of Table I r54)", "result": 97.65, "unit": "%"}, {"measurement": "Average Relative Light Units", "setting": "[3]; LucPpe2m146, 0.5%, 15 min (head r41)", "result": 5.496, "unit": "rlu"}, {"measurement": "Percent of Luminescence Remaining", "setting": "[3]; LucPpe2m146, 0.5%, 15 min (times of Table I r41)", "result": 100.00, "unit": "%"}, {"measurement": "Average Relative Light Units", "setting": "[3]; LucPpe2m146, 0.5%, 72 min (head r41)", "result": 3.141, "unit": "rlu"}, {"measurement": "Percent of Luminescence Remaining", "setting": "[3]; LucPpe2m146, 0.5%, 72 min (times of Table I r41)", "result": 57.16, "unit": "%"}, {"measurement": "Average Relative Light Units", "setting": "[3]; LucPpe2m146, 0.5%, 124 min (head r41)", "result": 2.769, "unit": "rlu"}, {"measurement": "Percent of Luminescence Remaining", "setting": "[3]; LucPpe2m146, 0.5%, 124 min (times of Table I r41)", "result": 50.39, "unit": "%"}, {"measurement": "Average Relative Light Units", "setting": "[3]; LucPpe2m146, 0.5%, 190 min (head r41)", "result": 2.563, "unit": "rlu"}, {"measurement": "Percent of Luminescence Remaining", "setting": "[3]; LucPpe2m146, 0.5%, 190 min (times of Table I r41)", "result": 46.64, "unit": "%"}, {"measurement": "Average Relative Light Units", "setting": "[3]; LucPpe2m146, 0.5%, 251 min (head r41)", "result": 2.766, "unit": "rlu"}, {"measurement": "Percent of Luminescence Remaining", "setting": "[3]; LucPpe2m146, 0.5%, 251 min (times of Table I r41)", "result": 50.32, "unit": "%"}]}
